Assay [1] concerns erythroid progenitor cells (EPCs). As to the kind of experiment: Fetal hemoglobin (HbF) ELISA in day 7 erythroid progenitor cells. The class given is cell-based, human. The following applies: for EC50: Homo sapiens, Erythroid progenitor cell, read-out: EPC ELISA (pEC50 category) (converted). In a few lines: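 HbF induction was read by anti-HbF sandwich ELISA (HRP/TMB, OD450) on lysates and normalized to vehicle-treated cells. Cells were day 7 erythroid progenitors derived from human bone marrow CD34+ cells, seeded at 1,000/well with 3 U/mL rhEPO. Compound was given for 5 days at 37 °C at final concentrations […].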
In general terms: In an ELISA, binding on a coated surface is turned into a signal by an enzyme label.

For the next assay, the target named is DNMT1 (Homo sapiens, UniProt P26358). The experiment in a line: DNMT1 biochemical activity, breaklight assay and/or SPA assay. The note with it: binned activity in either the breaklight or the SPA assay; for IC50: read-out: DNMT1 BioChemical (pIC50 category) (converted).
Sequence of DNMT1 (P26358 whole entry, looked up): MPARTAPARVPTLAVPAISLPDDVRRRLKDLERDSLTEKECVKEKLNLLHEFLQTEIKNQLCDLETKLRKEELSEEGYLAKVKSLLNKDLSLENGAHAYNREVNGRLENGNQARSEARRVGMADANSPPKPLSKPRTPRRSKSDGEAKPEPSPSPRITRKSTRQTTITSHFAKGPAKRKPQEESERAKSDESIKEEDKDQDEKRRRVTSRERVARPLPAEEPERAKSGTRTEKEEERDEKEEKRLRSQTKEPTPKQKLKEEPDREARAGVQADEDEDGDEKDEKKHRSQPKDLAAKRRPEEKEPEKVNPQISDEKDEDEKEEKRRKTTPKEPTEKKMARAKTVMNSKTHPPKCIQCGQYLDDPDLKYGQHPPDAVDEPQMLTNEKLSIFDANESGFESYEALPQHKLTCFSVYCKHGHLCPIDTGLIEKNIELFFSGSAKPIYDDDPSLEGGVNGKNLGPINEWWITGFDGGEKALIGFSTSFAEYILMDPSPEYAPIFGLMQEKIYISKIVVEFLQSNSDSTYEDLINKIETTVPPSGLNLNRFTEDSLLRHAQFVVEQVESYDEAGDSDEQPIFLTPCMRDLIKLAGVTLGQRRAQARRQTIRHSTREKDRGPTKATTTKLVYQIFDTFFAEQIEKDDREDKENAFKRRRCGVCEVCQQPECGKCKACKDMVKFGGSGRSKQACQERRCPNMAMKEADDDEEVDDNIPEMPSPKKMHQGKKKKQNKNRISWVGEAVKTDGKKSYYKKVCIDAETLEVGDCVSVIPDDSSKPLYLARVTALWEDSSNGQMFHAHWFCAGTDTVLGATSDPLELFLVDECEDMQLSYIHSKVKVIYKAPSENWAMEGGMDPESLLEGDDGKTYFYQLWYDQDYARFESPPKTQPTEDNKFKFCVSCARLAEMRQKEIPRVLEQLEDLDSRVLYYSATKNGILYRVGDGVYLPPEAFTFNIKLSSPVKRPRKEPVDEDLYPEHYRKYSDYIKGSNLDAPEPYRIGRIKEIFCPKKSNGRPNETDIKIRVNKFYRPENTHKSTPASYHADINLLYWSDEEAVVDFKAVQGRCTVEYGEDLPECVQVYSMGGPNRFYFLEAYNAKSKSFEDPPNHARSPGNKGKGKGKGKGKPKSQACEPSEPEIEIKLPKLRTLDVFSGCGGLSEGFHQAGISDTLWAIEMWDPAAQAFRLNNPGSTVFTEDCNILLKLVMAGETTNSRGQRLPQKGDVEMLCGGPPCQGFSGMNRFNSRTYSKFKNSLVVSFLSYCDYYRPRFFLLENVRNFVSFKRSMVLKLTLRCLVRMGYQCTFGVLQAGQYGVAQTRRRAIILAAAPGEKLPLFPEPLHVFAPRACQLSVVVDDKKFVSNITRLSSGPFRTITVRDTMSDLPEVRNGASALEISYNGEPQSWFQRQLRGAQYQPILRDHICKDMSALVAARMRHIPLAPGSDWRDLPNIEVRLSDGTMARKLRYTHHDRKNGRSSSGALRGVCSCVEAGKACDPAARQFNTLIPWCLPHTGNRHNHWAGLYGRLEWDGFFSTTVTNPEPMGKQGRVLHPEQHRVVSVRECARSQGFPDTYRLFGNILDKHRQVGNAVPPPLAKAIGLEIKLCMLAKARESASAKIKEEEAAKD

Each structure is given as a SMILES string. Structures can show the parent of a compound that is named as a salt. Where two headings read alike, the source gives them in different places.

Take `CCc1c(C#N)c(SC(C(N)=O)c2ccccc2)nc(N(C)CCCN)c1C#N` (stereo not shown) [Example 670, 2-((6-((3-aminopropyl)(methyl)amino)-3,5-dicyano-4-ethylpyridin-2-yl)thio)-2-phenylacetamide hydrochloride]: in assay [1] (HbF ELISA, day 7 EPCs, 5 days), the EC50 was < 316 nM. Further, the “DNMT1 BioChemical (pIC50 category)” value at DNMT1 was “D (Category D: ≥6.5)”.
As to `CCc1c(C#N)c(SC(C(N)=O)c2ccccc2)nc(N2CCC[C@H](NCC(C)(C)C)C2)c1C#N` (stereo partly drawn) [Example 651, 2-((3,5-dicyano-4-ethyl-6-((S)-3-(neopentylamino)piperidin-1-yl)pyridin-2-yl)thio)-2-phenylacetamide], in assay [1] (HbF ELISA, day 7 EPCs, 5 days), the EC50 was < 316 nM. The “DNMT1 BioChemical (pIC50 category)” value on DNMT1 is reported as “D (Category D: ≥6.5)”.
For the molecule `CCc1c(C#N)c(SCc2ccc(-n3ccnc3)cc2)nc(N2CCCN(C)CC2)c1C#N` [Example 294, 2-((4-(1H-Imidazol-1-yl)benzyl)thio)-4-ethyl-6-(4-methyl-1,4-diazepan-1-yl)pyridine-3,5-dicarbonitrile], the EC50 in assay [1] (HbF ELISA, day 7 EPCs, 5 days) was > 31600 nM. At DNMT1, the IC50 was 316 to 1000 nM.
As for `CCc1c(C#N)c(SC(C(N)=O)c2ccccc2)nc(N(C)CCN2CCC[C@@H]2CO)c1C#N` (stereo partly drawn) [Example 479, 2-((3,5-dicyano-4-ethyl-6-((2-((R)-2-(hydroxymethyl)pyrrolidin-1-yl)ethyl)(methyl)amino)pyridin-2-yl)thio)-2-phenylacetamide], in assay [1] (HbF ELISA, day 7 EPCs, 5 days), the EC50 was < 316 nM. For the same molecule, the “DNMT1 BioChemical (pIC50 category)” value on DNMT1 is listed as “D (Category D: ≥6.5)”.
Take `CCc1c(C#N)c(SCc2ccc(C(=O)O)cc2)nc(N2CCCN(C)CC2)c1C#N` [Example 73, 4-(((3,5-Dicyano-4-ethyl-6-(4-methyl-1,4-diazepan-1-yl)pyridin-2-yl)thio)methyl)benzoic acid]: the EC50 in assay [1] (HbF ELISA, day 7 EPCs, 5 days) was > 31600 nM. Moreover, on DNMT1, the IC50 was 316 to 1000 nM.
For `CCc1c(C#N)c(S[C@@H](C(N)=O)c2ccccc2)nc(N2CC[C@](O)(CN)C2)c1C#N` [Example 624, (R)-2-((6-((S)-3-(aminomethyl)-3-hydroxypyrrolidin-1-yl)-3,5-dicyano-4-ethylpyridin-2-yl)thio)-2-phenylacetamide], in assay [1] (HbF ELISA, day 7 EPCs, 5 days), the “EPC ELISA (pEC50 category)” value is given as “B (Category B: 4.5 ≤ x < 6.0)”. Further, the “DNMT1 BioChemical (pIC50 category)” value at DNMT1 is “D (Category D: ≥6.5)”.
Consider `CCc1c(C#N)c(SC(C(N)=O)c2ccccc2)nc(N2CCC3(CCNC3)CC2)c1C#N.O=C(O)C(F)(F)F` (stereo not shown) [Example 17, 2-((3,5-dicyano-4-ethyl-6-(2,8-diazaspiro[4.5]decan-8-yl)pyridin-2-yl)thio)-2-phenylacetamide; 2,2,2-trifluoroacetic acid], for which, in assay [1], the EC50 was < 316 nM. Besides, the “DNMT1 BioChemical (pIC50 category)” value on DNMT1 is “D (Category D: ≥6.5)”.
On to `CSc1c(C#N)c(SC(C(N)=O)c2ccccc2)nc(N2CCCN(C)CC2)c1C#N` (stereo not shown) [Example 202, 2-((3,5-Dicyano-6-(4-methyl-1,4-diazepan-1-yl)-4-(methylthio)pyridin-2-yl)thio)-2-phenylacetamide], for which the EC50 in assay [1] (HbF ELISA, day 7 EPCs, 5 days) is 316 to 1000 nM. Moreover, the IC50 at DNMT1 is 316 to 1000 nM.
Turning to `CCc1c(C#N)c(SC(C(N)=O)c2ccccc2)nc(N2CC[C@H](NCC(C)(C)O)C2)c1C#N` (stereo partly drawn) [Example 541, 2-((3,5-dicyano-4-ethyl-6-((S)-3-((2-hydroxy-2-methylpropyl)amino)pyrrolidin-1-yl)pyridin-2-yl)thio)-2-phenylacetamide], in assay [1] (HbF ELISA, day 7 EPCs, 5 days), the EC50 was < 316 nM. Besides, the “DNMT1 BioChemical (pIC50 category)” value at DNMT1 was “D (Category D: ≥6.5)”.
For `CN(CC(=O)N1CC(O)C1)c1nc(SC(C(N)=O)c2ccccc2)c(C#N)c(C2CC2)c1C#N` (stereo not shown) [Example 392, 2-((3,5-Dicyano-4-cyclopropyl-6-((2-(3-hydroxyazetidin-1-yl)-2-oxoethyl) (methyl)amino)pyridin-2-yl)thio)-2-phenylacetamide], in that order: 316 to 1000 nM and “D (Category D: ≥6.5)”.
For `N#Cc1c(SC(C(N)=O)c2ccccc2)nc(N2CC(NC(=O)[C@@H](N)CO)C2)c(C#N)c1C1CC1` (stereo partly drawn) [Example 611, (2S)-2-amino-N-(1-(6-((2-amino-2-oxo-1-phenylethyl)thio)-3,5-dicyano-4-cyclopropylpyridin-2-yl)azetidin-3-yl)-3-hydroxypropanamide] the same measures were 1000 to 31600 nM and “D (Category D: ≥6.5)”.
For the molecule `CCc1c(C#N)c(S[C@H](C(N)=O)c2ccccc2)nc(N2CC[C@H](O)C2)c1C#N` [Example 320, (S)-2-((3,5-Dicyano-4-ethyl-6-((S)-3-hydroxypyrrolidin-1-yl)pyridin-2-yl)thio)-2-phenylacetamide], the EC50 in assay [1] (HbF ELISA, day 7 EPCs, 5 days) was 316 to 1000 nM. Moreover, the IC50 on DNMT1 is 1000 to 31600 nM.
For `CCc1c(C#N)c(SC(C(N)=O)c2ccccc2)nc(N2CCC(N3C(=O)COC3=O)CC2)c1C#N` (stereo not shown) [Example 260, 2-((3,5-Dicyano-6-(4-(2,4-dioxooxazolidin-3-yl)piperidin-1-yl)-4-ethylpyridin-2-yl)thio)-2-phenylacetamide], in that order: 1000 to 31600 nM and 316 to 1000 nM.
Turning to `CCc1c(C#N)c(SC(C(N)=O)c2ccccc2)nc(N(C)CCNC2(C)CC2)c1C#N` (stereo not shown) [Example 489, 2-(3,5-dicyano-4-ethyl-6-(methyl(2-(1-methylcyclopropylamino)ethyl)amino)pyridin-2-ylthio)-2-phenylacetamide], the EC50 in assay [1] (HbF ELISA, day 7 EPCs, 5 days) is < 316 nM. Besides, at DNMT1, the “DNMT1 BioChemical (pIC50 category)” value was “D (Category D: ≥6.5)”.
For `CCc1c(C#N)c(SC(C(N)=O)c2ccccc2)nc(N2CCC(N(C)CC)CC2)c1C#N` (stereo not shown) [Example 549, 2-((3,5-dicyano-4-ethyl-6-(4-(ethyl(methyl)amino)piperidin-1-yl)pyridin-2-yl)thio)-2-phenylacetamide], in that order: < 316 nM and “D (Category D: ≥6.5)”.
Consider `CCc1c(C#N)c(SC(C(N)=O)c2cc(C)ccn2)nc(N2CCCN(C)CC2)c1C#N` (stereo not shown) [Example 208], for which the EC50 in assay [1] (HbF ELISA, day 7 EPCs, 5 days) was 316 to 1000 nM. Further, the IC50 at DNMT1 was 316 to 1000 nM.
Turning to `CCc1c(C#N)c(SC(C(N)=O)c2ccccc2)nc(N(C)CC(=O)N2C[C@H](O)[C@@H](O)C2)c1C#N` (stereo partly drawn) [Example 660, 2-((3,5-dicyano-6-((2-((3S,4S)-3,4-dihydroxypyrrolidin-1-yl)-2-oxoethyl)(methyl)amino)-4-ethylpyridin-2-yl)thio)-2-phenylacetamide], in assay [1] (HbF ELISA, day 7 EPCs, 5 days), the EC50 is 1000 to 31600 nM. The “DNMT1 BioChemical (pIC50 category)” value on DNMT1 is reported as “D (Category D: ≥6.5)”.
For `CCc1c(C#N)c(S[C@@H](C(N)=O)c2ccc(OC)cc2)nc(N2CC[C@H](O)C2)c1C#N` [Example 422, (R)-2-((3,5-dicyano-4-ethyl-6-((S)-3-hydroxypyrrolidin-1-yl)pyridin-2-yl)thio)-2-(4-methoxyphenyl)acetamide] the same measures were < 316 nM and “D (Category D: ≥6.5)”.
`CCc1c(C#N)c(SC(CC)c2ccc(CNC(C)=O)cc2)nc(N2CCC(N(C)C)CC2)c1C#N` (stereo not shown) [Example 332, N-(4-(1-(3,5-Dicyano-6-(4-(dimethylamino)piperidin-1-yl)-4-ethylpyridin-2-ylthio)propyl)benzyl)acetamide, Trifluoroacetic Acid Salt]: in assay [1] (HbF ELISA, day 7 EPCs, 5 days), the EC50 is 316 to 1000 nM. For the same molecule, the IC50 on DNMT1 was 1000 to 31600 nM.
On to `CCc1c(C#N)c(SC(C(N)=O)c2ccccc2)nc(N2CCO[C@H](CN)C2)c1C#N` (stereo partly drawn) [Example 564, 2-((6-((R)-2-(aminomethyl)morpholino)-3,5-dicyano-4-ethylpyridin-2-yl)thio)-2-phenylacetamide], for which the EC50 in assay [1] (HbF ELISA, day 7 EPCs, 5 days) was < 316 nM. In addition, on DNMT1, the “DNMT1 BioChemical (pIC50 category)” value is reported as “D (Category D: ≥6.5)”.

Source of the values: patent publication US10975056B2 (GlaxoSmithKline Intellectual Property Development Limited, priority 2016, dated 2021).
